Laboratory results reported in patent US6905016B2, “Packaging system for transdermal drug delivery systems” (Noven Pharmaceuticals, Inc., priority 2000, dated 2005).
“Also recorded” adds a separate entry of the source.

What was measured:
[1] = prescribed for morning sickness during pregnancy; cited from earlier work
beta-adrenergic = settings: L-form versus D-enantiomer; cited from earlier work
[2] = Degradation of methylphenidate in presence of moisture or packaging materials (observation)

## O=C1CCC(N2C(=O)c3ccccc3C2=O)C(=O)N1 (single isomer, unassigned) [D-enantiomer of thalidomide, thalidomide]
[1]
  safety/effect of enantiomer in pregnancy: safe and effective sedative

## O=C1CCC(N2C(=O)c3ccccc3C2=O)C(=O)N1 (single isomer, unassigned) [L-enantiomer of thalidomide, thalidomide]
[1]
  safety/effect of enantiomer in pregnancy: potent teratogen

## CC(C)NC[C@H](O)COc1cccc2ccccc12 [L-form of propranolol, propranolol]
beta-adrenergic
  potency relative to the D-enantiomer: 100 times

## COC(=O)C(c1ccccc1)C1CCCCN1 (centres unmarked) [methylphenidate]
[2]; certain types of packaging materials used for transdermal systems
  stability in the presence of packaging materials: unstable
[2]; exposure to moisture
  degradation in the presence of moisture: form ritalinic acid by hydrolysis; also recorded: formation of the erythro-enantiomers
